# Data reported in PubChem BioAssay AID330 (DTP/NCI, 2004).
# Where “and” joins values, the source holds several entries; their conditions need not be identical. Equal entries are not always repeated. Inconclusive results and toxic doses are left out.
# Test system: P388 leukemia ip, CD2F1 mice, survival T/C
# Assay: NCI In Vivo Anticancer Drug Screen. Data for tumor model P388 Leukemia (intraperitoneal) in CD2F1 (CDF1) mice
# Details: endpoint: median survival time, higher = longer survival
# Outline: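 Mice carrying the transplanted tumor received test compound or vehicle. Survival was recorded in each group, and the value is the treated-group measurement divided by that of the vehicle-treated control group.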
# [1] = dose: 6.25 mg/kg/injection, schedule: Q01DX009 (ip), vehicle: saline with Tween-80
# [2] = dose: 12.5 mg/kg/injection, schedule: Q01DX009 (ip), vehicle: saline with Tween-80
# [3] = dose: 25.0 mg/kg/injection, schedule: Q01DX009 (ip), vehicle: saline with Tween-80
# [4] = dose: 50.0 mg/kg/injection, schedule: Q01DX005 (ip), vehicle: saline with Tween-80
# [5] = dose: 60.0 mg/kg/injection, schedule: Q01DX005 (ip), vehicle: saline with Tween-80
# [6] = dose: 120.0 mg/kg/injection, schedule: Q01DX005 (ip), vehicle: saline with Tween-80
# [7] = dose: 240.0 mg/kg/injection, schedule: Q01DX005 (ip), vehicle: saline with Tween-80
# [8] = dose: 60.0 mg/kg/injection, schedule: Q01DX005 (ip), vehicle: Klucel (hydroxypropylcellulose) (HPC)
# [9] = dose: 120.0 mg/kg/injection, schedule: Q01DX005 (ip), vehicle: Klucel (hydroxypropylcellulose) (HPC)
# [10] = dose: 240.0 mg/kg/injection, schedule: Q01DX005 (ip), vehicle: Klucel (hydroxypropylcellulose) (HPC)
# [11] = dose: 100.0 mg/kg/injection, schedule: Q01DX009 (ip), vehicle: saline with Tween-80
# [12] = dose: 200.0 mg/kg/injection, schedule: Q01DX009 (ip), vehicle: saline with Tween-80
# [13] = dose: 50.0 mg/kg/injection, schedule: Q01DX009 (ip), vehicle: saline
# [14] = dose: 100.0 mg/kg/injection, schedule: Q01DX009 (ip), vehicle: saline
compound,measurement,setting,value
Brc1ccccc1CN=Cc1ccc2c(c1)OCO2,T/C,"dose: 50.0 mg/kg/injection, schedule: Q01DX005 (ip), vehicle: Klucel (hydroxypropylcellulose) (HPC)",101 % of control
same,T/C,"dose: 100.0 mg/kg/injection, schedule: Q01DX005 (ip), vehicle: Klucel (hydroxypropylcellulose) (HPC)",105 % of control
same,T/C,"dose: 200.0 mg/kg/injection, schedule: Q01DX005 (ip), vehicle: Klucel (hydroxypropylcellulose) (HPC)",103 % of control
CC(C)CCC1=CC(=O)C(CCC(C)C)=CC1=O,T/C,"dose: 3.12 mg/kg/injection, schedule: Q01DX009 (ip), vehicle: saline with Tween-80",104 % of control
same,T/C,[1],104 % of control
same,T/C,[2],106 % of control
same,T/C,[3],101 % of control
NC(CCC(=O)NC(CS(=O)(=O)O)C(=O)O)C(=O)O (centres undefined),T/C,"dose: 60.0 mg/kg/injection, schedule: Q01DX005 (ip), vehicle: saline",108 % of control
same,T/C,"dose: 120.0 mg/kg/injection, schedule: Q01DX005 (ip), vehicle: saline",108 % of control
same,T/C,"dose: 240.0 mg/kg/injection, schedule: Q01DX005 (ip), vehicle: saline",108 % of control
O=C(O)C1C2OC3C(OC(=O)C31)C2Br (centres undefined),T/C,[4],100 % of control
same,T/C,"dose: 100.0 mg/kg/injection, schedule: Q01DX005 (ip), vehicle: saline with Tween-80",94 % of control
same,T/C,"dose: 200.0 mg/kg/injection, schedule: Q01DX005 (ip), vehicle: saline with Tween-80",103 % of control
O=C1C(Cl)=C(Nc2cccc3ccccc23)C(=O)c2ccccc21,T/C,"dose: 6.25 mg/kg/injection, schedule: Q01DX005 (ip), vehicle: saline with Tween-80",104 % of control
same,T/C,"dose: 12.5 mg/kg/injection, schedule: Q01DX005 (ip), vehicle: saline with Tween-80",101 % of control
same,T/C,"dose: 25.0 mg/kg/injection, schedule: Q01DX005 (ip), vehicle: saline with Tween-80",109 % of control
same,T/C,[4],108 % of control
CC1OC(C)(c2ccc(Cl)c(O)c2)OC1C (centres undefined),T/C,[5],100 % of control
same,T/C,[6],102 % of control
same,T/C,[7],102 % of control
CC(NC(=O)CNC(=O)CN)C(N)=O (centres undefined),T/C,"dose: 50.0 mg/kg/injection, schedule: Q01DX005 (ip), vehicle: saline",101 % of control
same,T/C,"dose: 100.0 mg/kg/injection, schedule: Q01DX005 (ip), vehicle: saline",99 % of control
same,T/C,"dose: 200.0 mg/kg/injection, schedule: Q01DX005 (ip), vehicle: saline",101 % of control
Oc1cc2c(cc1C(c1ccc(F)cc1)N1CCCC1)OCO2 (centres undefined),T/C,[8],109 % of control
same,T/C,[9],111 % of control
same,T/C,[10],111 % of control
Cc1cc(N(C)C)c2ccc3c(ccc4c(N(C)C)cc(C)nc43)c2n1,T/C,[3],94 % of control
same,T/C,[11],103 % of control
same,T/C,[12],99 % of control
N=[N+]=CC(=O)OCC(N)C(=O)O (centres undefined),T/C,"dose: 2.3 mg/kg/injection, schedule: Q01DX009 (ip), vehicle: water",118 % of control
same,T/C,"dose: 6.25 mg/kg/injection, schedule: Q04DX003 (ip), vehicle: water",120 % of control
same,T/C,"dose: 18.8 mg/kg/injection, schedule: Q01DX009 (ip), vehicle: water",86 % of control and 91 % of control
same,T/C,"dose: 20.0 mg/kg/injection, schedule: Q01DX009 (ip), vehicle: saline",169 % of control
same,T/C,"dose: 25.0 mg/kg/injection, schedule: Q01DX009 (ip), vehicle: saline",153 % of control
same,T/C,"dose: 25.0 mg/kg/injection, schedule: Q04DX003 (ip), vehicle: water",157 % of control
same,T/C,"dose: 40.0 mg/kg/injection, schedule: Q01DX009 (ip), vehicle: saline",107 % of control and 121 % of control
same,T/C,"dose: 41.7 mg/kg/injection, schedule: Q01DX009 (ip), vehicle: saline",166 % of control
same,T/C,"dose: 50.0 mg/kg/injection, schedule: Q04DX003 (ip), vehicle: water",111 % of control
CC(C)=CC(=O)OC1C2C(C)=CC(=O)C(O)C2(C)C2C3(O)OCC24C(CC(=O)OC14)C(C)C3O (centres undefined),T/C,"dose: 0.5 mg/kg/injection, schedule: Q01DX009 (ip), vehicle: distilled water + Tween-80",161 % of control
same,T/C,"dose: 1.0 mg/kg/injection, schedule: Q01DX009 (ip), vehicle: distilled water + Tween-80",169 % of control and 198 % of control
same,T/C,"dose: 2.0 mg/kg/injection, schedule: Q01DX009 (ip), vehicle: distilled water + Tween-80",180 % of control and 191 % of control
CCCCCCCCCCCC(=O)NO,T/C,"dose: 3.13 mg/kg/injection, schedule: Q01DX009 (ip), vehicle: saline with Tween-80",94 % of control
same,T/C,[1],99 % of control
same,T/C,[2],101 % of control
same,T/C,[3],95 % of control
O=C1OC(C2OC(=O)C(=O)C2C2CCCCCCC2=O)C(C2CCCCCCC2=O)C1=O (centres undefined),T/C,[5],102 % of control
same,T/C,[6],95 % of control
same,T/C,[7],100 % of control
C=CCn1c(-c2ccccc2Cl)n[nH]c1=S,T/C,"dose: 50.0 mg/kg/injection, schedule: Q01DX009 (ip), vehicle: saline with Tween-80",102 % of control
same,T/C,[11],95 % of control
same,T/C,[12],99 % of control
CCOC(=O)C1C(c2ccc(C)cc2)C(C#N)C(=O)NC1(O)c1ccccc1 (centres undefined),T/C,"dose: 100.0 mg/kg/injection, schedule: Q04DX002 (ip), vehicle: Klucel (hydroxypropylcellulose) (HPC)",99 % of control
same,T/C,"dose: 200.0 mg/kg/injection, schedule: Q04DX002 (ip), vehicle: Klucel (hydroxypropylcellulose) (HPC)",95 % of control
same,T/C,"dose: 400.0 mg/kg/injection, schedule: Q04DX002 (ip), vehicle: Klucel (hydroxypropylcellulose) (HPC)",98 % of control
O=[N+]([O-])c1ccc(N/N=C\C2OC3O[C@@H](C(Cl)(Cl)Cl)OC3C2O)c([N+](=O)[O-])c1 (some centres undefined),T/C,"dose: 200.0 mg/kg/injection, schedule: Q04DX002 (ip), vehicle: saline with Tween-80",87 % of control
CN(C)c1ccc(/C=N/NC(=O)CNC(=O)c2ccccc2)cc1,T/C,[5],94 % of control
same,T/C,[6],92 % of control
same,T/C,[7],96 % of control
COc1cc(C2c3cc4c(cc3[C@@H](OC3OC5CO[C@@H](c6cccs6)OC5C(O)C3O)[C@H]3COC(=O)C23)OCO4)cc(OC)c1OC (some centres undefined),T/C,"dose: 2.0 mg/kg/injection, schedule: Q01DX005 (ip), vehicle: saline",123 % of control
same,T/C,"dose: 8.0 mg/kg/injection, schedule: Q01DX005 (ip), vehicle: saline",155 % of control
same,T/C,"dose: 16.0 mg/kg/injection, schedule: Q01DX005 (ip), vehicle: saline",175 % of control and 185 % of control
same,T/C,"dose: 32.0 mg/kg/injection, schedule: Q01DX005 (ip), vehicle: saline",203 % of control
same,T/C,"dose: 64.0 mg/kg/injection, schedule: Q01DX005 (ip), vehicle: saline",225 % of control
Cc1cc(NC(=O)COCC(=O)O)no1,T/C,[8],101 % of control
same,T/C,[9],101 % of control
same,T/C,[10],92 % of control
Cc1ccc2c3nc4ccccc4c-3csc2c1,T/C,"dose: 18.0 mg/kg/injection, schedule: Q01DX009 (ip), vehicle: saline",104 % of control
same,T/C,"dose: 27.5 mg/kg/injection, schedule: Q01DX009 (ip), vehicle: saline",89 % of control
COc1cccc2[se]c(C(=O)O)cc12,T/C,[13],92 % of control
same,T/C,[14],89 % of control
CC(C)NC(=O)c1ccc(C/[N+]([O-])=C/c2ccccc2)cc1,T/C,"dose: 50.0 mg/kg/injection, schedule: Q01DX009 (ip), vehicle: distilled water + Tween-80",95 % of control
same,T/C,"dose: 50.0 mg/kg/injection, schedule: Q01DX009 (ip), vehicle: other",121 % of control
same,T/C,"dose: 100.0 mg/kg/injection, schedule: Q01DX009 (ip), vehicle: distilled water + Tween-80",92 % of control and 95 % of control
same,T/C,"dose: 100.0 mg/kg/injection, schedule: Q01DX009 (ip), vehicle: other",103 % of control
same,T/C,"dose: 200.0 mg/kg/injection, schedule: Q01DX009 (ip), vehicle: distilled water + Tween-80",89 % of control and 92 % of control
same,T/C,"dose: 200.0 mg/kg/injection, schedule: Q01DX009 (ip), vehicle: other",116 % of control
same,T/C,"dose: 400.0 mg/kg/injection, schedule: Q01DX009 (ip), vehicle: distilled water + Tween-80",92 % of control
same,T/C,"dose: 800.0 mg/kg/injection, schedule: Q01DX009 (ip), vehicle: other",153 % of control
O=C1NC(Cc2ccccc2)C(=O)N2CCCC12 (centres undefined),T/C,[13],100 % of control
same,T/C,[14],96 % of control
same,T/C,"dose: 200.0 mg/kg/injection, schedule: Q01DX009 (ip), vehicle: saline",101 % of control
O=C1C(Cl)=C(N2CCN(C3=C(Cl)C(=O)c4ccccc4C3=O)CC2)C(=O)c2ccccc21,T/C,"dose: 1.5 mg/kg/injection, schedule: Q01DX009 (ip), vehicle: saline",100 % of control and 104 % of control
same,T/C,"dose: 3.0 mg/kg/injection, schedule: Q01DX009 (ip), vehicle: saline",100 % of control and 107 % of control
same,T/C,"dose: 6.0 mg/kg/injection, schedule: Q01DX009 (ip), vehicle: saline",104 % of control and 97 % of control
